Data taken from patent US12653805B2, “Targeting LASP1, eIF4A1, eIF4B and CXC4 with modulators and combinations thereof for cancer therapy” (The University of Toledo, priority 2019, dated 2026).

Tests used:
MDA-MB-231 cells = details: cited from earlier work
[1] = tested on: LASP1-eIF4A interaction in 231S cells; assay: Proximity ligation assay (PLA) of LASP1-eIF4A interaction; type: cell-based, human
Experimental: The Duolink In Situ Orange Fluorescent kit (Sigma/Aldrich, St. Louis, Mo., Cat. No. DUO92102-1KT) was employed to detect the endogenous interaction between LASP1 and eIF4A in situ in 231S cells. The PLA was performed according to the manufacturer's instructions using a rabbit eIF4A1 antibody (Cohesion Biosciences, London, Purley, Cat. No. CQA1180) and a mouse LASP1 antibody (Biolegend, San Diego, Calif., Cat. No. 909301). The single Ab control condition represents the PLA reaction with only the LASP1 antibody. In addition, cells were stained with phalloidin (Life Technologies, Carlsbad, Calif., Cat. No. A12379) and nuclei with DRAQ5 (Thermo Scientific, Rockford, Ill., Cat No. 62251). Cells were stimulated and inhibited as described. Moreover, cells were fixed, stained, and permeabilized with standard methods. The images were acquired by two-photon confocal microscopy and processed with Leica Application Suite X software (Leica, Wetzlar, Germany). Quantification of the interaction dots was performed using ImageJ.

[2] = tested on: LASP1-eIF4A/eIF4B association in 231S cells; assay: Co-immunoprecipitation of LASP1 with eIF4A/eIF4B; type: cell-based, human
Experimental: Subconfluent 231S cells were serum-starved for 1 hour and stimulated with 10-20 nM CXCL12 (PeptroTech, Rocky Hill, N.J., Cat. No. 300-28A) over different time points. […] Total protein in the clarified lysate was quantified using a Bradford protein assay (Bio-Rad, Hercules, Calif., Cat. No. 5000006). 1 mg of total protein lysate was employed in all immunoprecipitation reactions. eIF4B was immunoprecipitated by using 2 μg of eIF4B antibody (Cell Signaling Technology, Danvers, Mass., Cat. No. 13088). Mouse (G3A1) mAb IgG1 Isotype Control (Cell Signaling Technology, Danvers, Mass., Cat. No. 5415) served as the mock control. Next, eIF4A was immunoprecipitated using 2 μg of eIF4A1 antibody (Cohesion Biosciences, London, Purley, Cat. No. CQA1180). His-Tag (D3L10) XP® Rabbit mAb (Cell Signaling Technology, Danvers, Mass., Cat. No. 12698) was employed for the mock condition. Finally, in the reciprocal Co-IP, LASP1 was immunoprecipitated by using 2 μg LASP1 antibody (Biolegend, San Diego, Calif., Cat. No. 909301). As in the eIF4B Co-IP, mouse (G3A1) IgG1 isotype mAb was employed as the mock control. […] Proteins of interest were analyzed by sodium dodecyl sulfate-polyacrylamide gel electrophoresis (SDS-PAGE) and Western blotting.

[3] = tested on: eIF4F complex in 231S cells; assay: m7GTP pulldown assay (eIF4F complex); type: cell-based, human
Experimental: 231S cells were serum starved for 1 h and cells were stimulated (and prepared) as described in the co-immunoprecipitation section. 100 nM AMD3465 (CXCR4 antagonist, Sigma-Aldrich, St. Louis, Mo., Cat. No. SML1433-5MG) was incubated 30 min prior to stimulation. 1 mg of total protein lysate in 1 mL of Co-IP buffer was incubated with 25 μL of m7-GTP agarose beads overnight at 4° C. (Jena Biosciences, Jena, Germany, Cat. No. AC-155S). Following incubation, beads were washed with Co-IP buffer. Protein was eluted and analyzed by SDS-PAGE and Western blotting.

[4] = tested on: CXCR4 signaling in 231S cells; assay: Western blotting of phosphorylation of eIF4B, PDCD4, 4E-BP1 after CXCR4 activation; type: cell-based, human
Experimental: (§1) Cell lysates were prepared and quantified as described. Western blots were incubated with the following 1° Abs: Cyclin D1 (Cell Signaling Technology, Danvers, Mass., Cat. No. 2922), eIF4A C32B4 (Cell Signaling Technology, Danvers, Mass., Cat. No. 2013), eIF4B 1F5 (Cell Signaling Technology, Danvers, Mass., Cat. No. 13088), p-eIF4B S422 (Thermo Scientific, Rockford, Ill., Cat No. PA5-38362), eIF4E C46H6 (Cell Signaling Technology, Danvers, Mass., Cat. No. 2067), eIF4G C45A4 (Cell Signaling Technology, Danvers, Mass., Cat. No. 2469), GST 26H1 (Cell Signaling Technology, Danvers, Mass., Cat. No. 2624), LASP1 8C6 (Biolegend, San Diego, Calif., Cat. No. 909301), MDM2 SMP14 (Santa Cruz Biotechnology, Dallas, Tex., Cat. No. sc-965), PDCD4 D29C6 (Cell Signaling Technology, Danvers, Mass., Cat. No. 9535), p-PDCD4 S67 (Sigma-Aldrich, St. Louis, Mo., Cat. No. P0072), ROCK1 C8F7 (Cell Signaling Technology, Danvers, Mass., Cat. No. 4035), survivin 71G4B7 (Cell Signaling Technology, Danvers, Mass., Cat. No. 2808), 4E-BP1 53H11 (Cell Signaling Technology, Danvers, Mass., Cat. No. 9644), p-4E-BP1 Thr70 (Cell Signaling Technology, Danvers, Mass., Cat. No. 9455), and β-tubulin D66 (Sigma/Aldrich, St. Louis, Mo., Cat. No. T0198). Following primary incubation, Western blots were incubated with Goat anti-Mouse IgG (H+L) Superclonal™ Secondary Ab conjugated to HRP (Thermo Scientific, Rockford, Ill., Cat No. A28177) or Goat anti-Rabbit IgG (H+L) Superclonal™ Secondary Ab conjugated to HRP (Thermo Scientific, Rockford, Ill., Cat No. A27036). Finally, blots were developed with Amersham™ ECL™ Prime Western Blotting Detection Reagent (GE Healthcare Life Sciences, Pittsburgh, Pa., Cat. No. RPN2232) and HyBlot ES™ Autoradiography Film (Denville Scientific, Swedesboro, N.J., Cat. No. E3212). Densitometry of the Western blots was performed using ImageJ. Calculation of fold change is given in the figure legend for each experiment.

231S LASP1 NS cells = assay: Western blotting of eIF4A-dependent genes after CXCL12 stimulation; type: cell-based, human; details: control-silenced (LASP1 NS) 231S cells, 10-20 nM CXCL12
Experimental: as §1, with “Following primary incubation, Western blots were incubated with Goat anti-Mouse IgG (H+L) Superclonal™ Secondary Ab conjugated to HRP (Thermo Scientific, Rockford, Ill., Cat No. A28177) or Goat anti-Rabbit IgG (H+L) Superclonal™ Secondary Ab conjugated to HRP (Thermo Scientific, Rockford, Ill., Cat No. A27036). Finally, blots were developed with Amersham™ ECL™ Prime Western Blotting Detection Reagent (GE Healthcare Life Sciences, Pittsburgh, Pa., Cat. No. RPN2232) and HyBlot ES™ Autoradiography Film (Denville Scientific, Swedesboro, N.J., Cat. No. E3212). Densitometry of the Western blots was performed using ImageJ. Calculation of fold change is given in the figure legend for each experiment.” left out

| Compound | IC50 (MDA-MB-231 cells) | stimulation of the interaction between LASP1 and eIF4A ([1]; CXCL12 5 min vs unstimulated) | LASP1-eIF4A interaction dots (interactions/cell) ([1]; CXCL12 incubation for 5 min (20 nM), unstimulated 11.6±6.5) | increase in association of LASP1 with eIF4B (reciprocal Co-IP) ([2]; 20 nM CXCL12, 0 min set to 1) | association of endogenous LASP1 and eIF4A1 (reciprocal Co-IP) ([2]; 20 nM CXCL12, 5 min, 0 min set to 1) | eIF4G-eIF4E interaction (eIF4G recruitment) ([3]; 20 nM CXCL12, 20 min) | association of endogenous LASP1 with eIF4E ([3]; 20 nM CXCL12, peak at 5 min) | eIF4G-eIF4E interaction (eIF4G recruitment) ([3]; 20 nM CXCL12, peak at 5 min) | phosphorylation of PDCD4 (pS67) ([4]; CXCL12, 5 min) | phosphorylation of PDCD4 (pS67) ([4]; CXCL12, peak at 10 min) | protein levels of CCND1, BIRC5, Mdm2, and ROCK1 (231S LASP1 NS cells) |
| --- | --- | --- | --- | --- | --- | --- | --- | --- | --- | --- | --- |
| COC(=O)[C@H]1[C@@H](O)[C@@]2(O)c3c(OC)cc(O[C@@H]4O[C@@H]([C@H](O)CO)CO[C@H]4OC)cc3O[C@@]2(c2ccc(OC)cc2)[C@@H]1c1ccccc1 [Silvestrol] | 0.06 µM | – | – | – | – | – | – | – | – | – | – |
| CXCL12: ligand for CXCR4 (PeproTech), used to stimulate cells | – | 3 fold | 118±58.3 dots | 7.5 fold | 19.1 fold | 2.2 fold | 2.2 fold | 4.4 fold | 3.3 fold | 3.9 fold | considerable increases |
